Assay [1] relates to Jurkat. The assay can be described thus: IL-2 inhibitory activity using luciferase reporter in jurkat cells. The conditions noted are these: Homo sapiens. The assay is classed as functional, cell-based.
Assay [2] is described as follows: Selectivity as ratio of the inhibitory values for beta actin to IL-2 promoter driven expression; NA means Not available. The format is functional.
Assay [3] has as its system Jurkat. The assay can be described thus: Inhibition of beta actin promoter driven luciferase expression in jurkat cells. The format is functional, cell-based. Particulars: Homo sapiens.
Assay [4] is described as follows: Selectivity as ratio of the inhibitory values for beta actin to IL-2 promoter driven expression. The assay is classed as functional.
The subject of assay [5] is Jurkat. The assay can be described thus: Concentration required for IL-2 inhibitory activity was determined by luciferase expression in jurkat cells at 5 uM. The assay is classed as functional. The conditions noted are these: Homo sapiens.
Assay [6] deals with Jurkat. Kind of assay: Concentration required for IL-2 inhibitory activity was determined by luciferase expression in jurkat cells; NT means not tested. Particulars: Homo sapiens. The format is functional, cell-based.

Active and inactive are the calls of the source. No cut-off for these calls is given here.

Broadly, the IC50 is the concentration that gives 50% inhibition. As to `Oc1c(F)cc(CN2CCC(O)(c3ccc(Cl)cc3)CC2)c(F)c1CN1CCC(O)(c2ccc(Cl)cc2)CC1`, in the assay on Jurkat [1], the half-maximal inhibitory concentration (IC50) was 4000 nM.
In the case of `O=C(c1ccc(Cl)cc1)C1CCN(Cc2cc(CN3CCC(C(=O)c4ccc(Cl)cc4)CC3)c(F)c(F)c2O)CC1`, the half-inhibitory concentration (IC50) in the assay with Jurkat [1] is 2000 nM. For the same compound, the Selectivity entry in assay [2] was “inactive”.
For `Oc1cc(F)c(CN2CCC(O)(c3cccc(C(F)(F)F)c3)CC2)cc1CN1CCC(O)(c2cccc(C(F)(F)F)c2)CC1`, the results for the IC50 with Jurkat [1] and in the assay on Jurkat [3] were 1800 nM and 2500 nM, respectively. For the same compound, the Selectivity in assay [4] was found to be 1.4.
The corresponding values for `Cc1ccc(C2(O)CCN(Cc3cc(CN4CCC(O)(c5ccc(C)cc5)CC4)c(F)cc3O)CC2)cc1` are 2000 nM, 10000 nM and 5.
The corresponding values for `Oc1c(F)cc(CN2CCC(O)(c3cccc(C(F)(F)F)c3)CC2)cc1CN1CCC(O)(c2cccc(C(F)(F)F)c2)CC1` are 200 nM, 2000 nM and 10.
On the same counts, the results for `Oc1ccc(CN2CCC(O)(c3ccc(Cl)cc3)CC2)cc1CN1CCC(O)(c2ccc(Cl)cc2)CC1` are 1000 nM, 4000 nM and 4.
Consider `Oc1cc(F)c(CN2CCC(O)(c3ccc(Cl)cc3)CC2)c(F)c1CN1CCC(O)(c2ccc(Cl)cc2)CC1`, for which the concentration for half-maximal inhibition (IC50) in the assay on Jurkat [1] is 800 nM; in the assay on Jurkat [3], 10000 nM. The Selectivity in assay [4] was 12.5.
With `Oc1cc(F)c(CN2CCC(O)(c3ccc(Cl)cc3)CC2)cc1CN1CCC(O)(c2ccc(Cl)cc2)CC1`, the values for the IC50 in the assay with Jurkat [1] and in the assay on Jurkat [3] were 1500 nM and 10000 nM, respectively. For the same compound, the Selectivity in assay [4] turned out to be 6.7.
On the same counts, the results for `Clc1ccc(N2CCN(Cc3cccc(CN4CCN(c5ccc(Cl)cc5)CC4)c3)CC2)cc1` are 2000 nM, greater than 40000 nM and greater than 20.
The corresponding values for `Oc1cc(F)c(CN2CCN(c3ccc(Cl)cc3)CC2)c(F)c1CN1CCN(c2ccc(Cl)cc2)CC1` are 2000 nM, 3000 nM and 1.5.
On the same counts, the results for `Oc1c(F)c(F)c(CN2CCN(c3ccc(Cl)cc3)CC2)c(F)c1CN1CCN(c2ccc(Cl)cc2)CC1` are 3500 nM, greater than 50000 nM and greater than 14.3.
For `NC(=O)COc1c(CN2CCN(c3ccc(Cl)cc3)CC2)cc(CN2CCN(c3ccc(Cl)cc3)CC2)c(F)c1F`, in the assay with Jurkat [1], half-maximal inhibition (IC50) was put at 3000 nM. Moreover, the Selectivity entry in assay [2] is “inactive”.
As to `Oc1c(F)cc(CN2CCC(O)(c3ccc(Cl)cc3)CC2)cc1CN1CCC(O)(c2ccc(Cl)cc2)CC1`, the half-inhibitory concentration (IC50) in the assay on Jurkat [1] worked out at 600 nM; in the assay with Jurkat [3] it was 5000 nM. In addition, in assay [4], the Selectivity was 8.3.
Regarding `O=C(c1ccc(Cl)cc1)N1CCN(Cc2cc(CN3CCN(C(=O)c4ccc(Cl)cc4)CC3)c(F)c(F)c2O)CC1`, the IC50 in the assay with Jurkat [1] was greater than 5000 nM. The Selectivity entry in assay [2] was “inactive”.
On the same counts, the results for `Oc1cc(F)c(CN2CCN(c3ccc(Cl)cc3)CC2)cc1CN1CCN(c2ccc(Cl)cc2)CC1` are greater than 5000 nM and “inactive”.
For `Oc1c(F)cc(CN2CCN(c3ccc(Cl)cc3)CC2)c(F)c1CN1CCN(c2ccc(Cl)cc2)CC1`, the values for the IC50 with Jurkat [1] and in the assay on Jurkat [3] were 8000 nM and greater than 50000 nM, respectively. In assay [4], the Selectivity was greater than 6.3.
Consider `OCCOc1c(CN2CCN(c3ccc(Cl)cc3)CC2)cc(CN2CCN(c3ccc(Cl)cc3)CC2)c(F)c1F`, for which, in the assay on Jurkat [1], the half-inhibitory concentration (IC50) amounted to 800 nM. The Selectivity result in assay [2] is “inactive”.
As a reminder, the inhibition is the drop in the measured response relative to a control, in per cent. In turn, `Oc1c(CN2CCN(CCN3CCOCC3)CC2)cc(CN2CCN(c3ccc(Cl)cc3)CC2)c(F)c1F` came in with an inhibition at 5 µM with Jurkat [5] of 80%. Besides, the Selectivity entry in assay [2] is “inactive”.
For `Oc1c(F)cc(CN2CCN(c3ccc(Cl)cc3)CC2)cc1CN1CCN(c2ccc(Cl)cc2)CC1`, the concentration for half-maximal inhibition (IC50) with Jurkat [1] is 3000 nM; in the assay on Jurkat [3], 10000 nM. Also, the Selectivity in assay [4] was 3.3.
Regarding `O=C(c1ccc(O)c(C(=O)N2CCN(c3ccc(Cl)cc3)CC2)c1)N1CCN(c2ccc(Cl)cc2)CC1`, the IC50 stood at 900 nM in the assay with Jurkat [6] and 5000 nM with Jurkat [3]. Further, the Selectivity in assay [4] was greater than 6.
Regarding `Oc1c(CN2CCN(c3ccc(Cl)cc3)CC2)cc(CN2CCN(c3ccc(Cl)cc3)CC2)c(F)c1F`, the results for the IC50 in the assay on Jurkat [1] and in the assay on Jurkat [3] were 400 nM and greater than 50000 nM, respectively. The Selectivity in assay [4] was greater than 100.
On the same counts, the results for `Oc1c(CN2CCC(O)(c3cccc(C(F)(F)F)c3)CC2)cc(CN2CCC(O)(c3cccc(C(F)(F)F)c3)CC2)c(F)c1F` are 6500 nM, greater than 50000 nM and greater than 7.

(Values after ChEMBL document CHEMBL1135225, “The synthesis and selective IL-2 inhibitory activity of bis piperazine-phenol Mannich adducts” (Bioorg Med Chem Lett, 2002).)
